Reference: patent US20190358264A1, “METHODS OF TREATING DISEASES ASSOCIATED WITH ILC2 CELLS” (Limm Therapeutics, SA, priority 2016, published 2019)

What was measured:
[1] = test system: intestine and lung-derived ILC2s; test: In vitro activation of purified ILC2s with NmU23, type 2 cytokine mRNA by quantitative RT-PCR; format: cell-based, mouse
Protocol: For in vitro experiments, purified lung and small intestine lamina propria ILC2s were FBS starved for 2 hours prior to stimulation and cultured in complete RPMI (supplemented with 10% foetal bovine serum (FBS), 1% hepes, sodium pyruvate, glutamine, streptomycin and penicillin) at 37° C. For mRNA analysis, ILC2s were stimulated overnight with recombinant mouse Neuromedin U 23 peptide (NmU23, 100 ng/mL; Phoenix pharmaceuticals). Both NmU23-stimulated and control ILC2s were cultured in the presence of IL-2 and IL-7 (10 ng/mL; Peprotech). ILC2s were lysed using RLT buffer (Qiagen). For cytokine protein analysis, ILC2s were incubated exclusively with brefeldin A (eBioscience) for 12 hours prior to intracellular staining. For in vivo experiments, B6 mice were injected intraperitoneal with NmU23 peptide (2 g/day) during Nippostrongylus brasiliensis infection or with a single dose of NmU23 (20 μg) and analyzed after 8 hours. Control mice were treated with PBS alone. Total RNA was extracted using RNeasy micro kit (Qiagen) according to the manufacturer's protocol. RNA concentration was determined using Nanodrop Spectrophotometer (Nanodrop Technologies). Quantitative real-time RT-PCR was performed as previously described^5,8. Hprt1, Gapdh and Eef1a1 were used as housekeeping genes. For TaqMan assays (Applied Biosystems) RNA was retro-transcribed using a High Capacity RNA-to-cDNA Kit (Applied Biosystems), followed by a pre-amplification PCR using TaqMan PreAmp Master Mix (Applied Biosystems). TaqMan Gene Expression Master Mix (Applied Biosystems) was used in real-time PCR. TaqMan Gene Expression Assays (Applied Biosystems) were the following: Hprt1 Mm00446968_m1; Gapdh Mm99999915_g 1; Eef1a1 Mm01973893_g 1; Il5 Mm00439646_m1; Il13 Mm00434204_m1; Areg Mm01354339_m1; 114 Mm00445259_m1; Csf2 Mm01290062_m1; Gata3 Mm00484683_m1; Rora Mm01173766_m1; Nmu Mm00479868_m1; Nmur1 Mm04207994_m1. Real-time PCR analysis was performed using StepOne Real-Time PCR system (Applied Biosystems).

[2] = test system: ERK1/2; test: ERK phosphorylation in purified ILC2s activated with NmU23; format: cell-based, mouse; details: NmU23 100 ng/mL, 10 minutes, with IL-2 and IL-7
Protocol: Purified ILC2s from small intestine and lung were FBS starved for 2 hours before in vitro activation with NmU23 at 37° C. To test for ERK phosphorylation (Cell Signaling Technology), purified ILC2s were activated with NmU23 (100 ng/mL; Phoenix pharmaceuticals) in the presence of IL-2 and IL-7 (10 ng/mL; Peprotech) for 10 minutes prior to intracellular staining. To test ERK, calcineurin and NFAT activation, ILC2s were cultured for 1 hour with their respective inhibitor and then stimulated with NmU23 overnight before mRNA expression analysis. ERK inhibitor—PD98059 (Sigma); Calcineurin inhibitor—FK506 (Tocris Bioscience); NFAT inhibitor—11R-VIVIT (Tocris Bioscience).

recombinant mouse Neuromedin U 23 peptide (FKAEYQSPSVGQSKGYFLFRPRN; listed as Mus musculus) [NmU23, NMUR1 agonist neuropeptide, Phoenix pharmaceuticals]
innate Il5 and Il13 gene expression in intestinal ILC2 ([1]; NmU23 100 ng/mL in vitro (FIG. 9f)): immediate innate Il5 and Il13 upregulation
expression of type 2 cytokines genes Il5, Il13, Areg and Csf2 in ILC2s ([1]; NmU23 100 ng/mL overnight, with IL-2 and IL-7, intestine and lung ILC2s): prompt and very potent expression
expression of the master type 2 transcription factor Gata3 in ILC2s ([1]; NmU23 100 ng/mL overnight, intestine and lung ILC2s): increased expression
ERK1/2 activation (pERK) in ILC2s [2]: immediate and efficient ERK1/2 activation
